In patent US12257282B2, “Mixtures and formulations” (CAMURUS AB, priority 2016, dated 2025):
Numbered stars: 1 amine (or outer) side, 2 acyl side, 3 side chain; on linkers, the order of the positions; unused ones are H or OH. Square brackets hold non-standard residues; d marks the D form. Side chains are listed from the residue outwards. Peptide text beside a SMILES is read from it. * marks the point of attachment. Ethylenediamine = C(CN[*:2])N[*:1]; Hyp = O=C(O)[C@@H]1C[C@@H](O)CN1; Phg = N[C@H](C(=O)O)c1ccccc1; CO = O=C([*:1])[*:2]; Bn = c1ccc(C*)cc1

What was measured:
[1] = Octreotide stability in lipid formulations (assay by gradient HPLC-UV after storage); settings: for effect on OCT(Cl) stability vs. the reference formulation (FIG. 6): additive mixtures in EtOH/PG filtered to remove non-dissolved particles, 5 ppm Fe3+; for effect on OCT(Cl) stability vs. the reference formulation (FIG. 6) / effect on octreotide stability compared to the reference formulation (FIG. 7): up to two months; for effect on octreotide stability compared to the reference formulation (FIG. 7): alkylamine used to solubilize 100 ppm EDTA, alkylamine:EDTA 4:1
[2] = placebo SPC/GDO 50/50 and 35/65 with EtOH; 100 ppm EDTA; with or without 5 ppm Fe3+; 60° C./ambient RH and 40° C./75% RH
Protocol: Oxygen concentration in the vial headspace was measured using a PC-controlled PreSens Microx TX3 micro fiber optic oxygen transmitter equipped with a needle-type optical oxygen microsensor (NTH, 140 μm flat broken tip). Measurements were performed by penetrating the oxygen microsensor through the vial rubber stopper into the vial headspace and measuring the oxygen concentration until a stable readout was obtained (about 1 min).
Some formulations also contained 5 ppm Fe^3+ to enhance the oxidative stress conditions (Table 10).

[3] = 2.00 wt % SOM(Cl) in SPC/GDO/EtOH/PG; 100 ppm EDTA with ETA; 40° C./75% RH and 25° C./60% RH, up to three months
SSTR1-SSTRS = settings: cited from earlier work
[4] = cited from earlier work
[5] = DTPA solubility in EtOH/PG as a function of ETA/DTPA molar ratio; format: physicochemical
[6] = 0.38 wt % EDTA in EtOH/PG (1/1 wt/wt)
[7] = single subcutaneous dose, human plasma; cited from earlier work

In the case of `O.O.O=C(O)CN(CCN(CC(=O)O)CC(=O)O)CC(=O)O.[Na].[Na]` [EDTA(Na), Ethylenediaminetetraacetic acid disodium dihydrate], the “effect on OCT(Cl) stability vs. the reference formulation (FIG. 6)” value ([1]; 40° C./75% RH) is reported as “negative effect”.

In the case of `O=C(O)CN(CCN(CC(=O)O)CC(=O)O)CC(=O)O` [EDTA, Ethylenediaminetetraacetic (edetic) acid], the “effect on consumption of headspace oxygen (lipid oxidation, FIG. 15-18)” value [2] is reported as “drastically reduce consumption of oxygen”, the “effect on octreotide stability vs. reference formulation (FIG. 2)” value ([1]; 2.27 wt % OCT(Cl) in SPC/GDO/EtOH/PG, 0-750 ppm EDTA with ETA, 40° C./75% RH, 0, 1, 2 months, air headspace) is reported as “dramatically enhanced the peptide stability” and the “EDTA concentration interval of maximum stabilization effect” value ([1]; 2.27 wt % OCT(Cl) in SPC/GDO/EtOH/PG, 40° C./75% RH) is reported as 50-250 ppm. For the same molecule, the “effect on octreotide stability (octreotide assay, FIG. 1)” value ([1]; 2.34 wt % OCT(Cl) in SPC/GDO/EtOH/PG, 100 ppm EDTA with 100 ppm ETA vs none, […], up to three months, air headspace) was “dramatically enhanced the peptide stability”, the “effect on long-term octreotide stability (FIG. 3)” value ([1]; 100 ppm EDTA with ETA, pre-filled glass syringes, 25° C./60% RH, up to twelve months) was “significantly enhanced the long-term peptide stability” and the “effect on OCT(Cl) stability vs. the reference formulation (FIG. 6)” value ([1]; 40° C./75% RH) was “negative effect”. The “effect on SOM stability (SOM assay, FIG. 9)” value [3] was “dramatically enhanced the peptide stability”.

In the case of `C[C@@H](O)[C@@H]1NC(=O)[C@H](CCCCN)NC(=O)[C@@H](Cc2c[nH]c3ccccc23)NC(=O)[C@H](Cc2ccccc2)NC(=O)[C@@H](NC(=O)[C@H](N)Cc2ccccc2)CSSC[C@@H](C(=O)N[C@H](CO)[C@@H](C)O)NC1=O` [Octreotide, D-Phe-Cys-Phe-D-Trp-Lys-Thr-Cys-Thr-ol (2-7 disulphide bridge)], the “selectivity for SSTR2 and SSTRS” value (SSTR1-SSTRS) is listed as “high selectivity” and the terminal half-life ([4]; in vivo) is listed as “around 1.7 hours”.

For “Ala-Gly-Cys-Lys-Asn-Phe-Phe-Trp-Lys-Thr-Phe-Thr-Ser-Cys [SST-14]”, the “affinity of the five SSTR types” value (SSTR1-SSTRS; SSTR1-SSTRS) is given as “equally high affinity” and the biological half-life ([4]; natural SST-14) is given as 1-3 minutes.

In the case of `NCCO` [ETA, Ethanolamine], the “effect on octreotide stability compared to the reference formulation (FIG. 7)” value ([1]; 40° C./75% RH) is reported as “enhanced the peptide stability to a similar high degree”.

With `O=C(O)CN(CCN(CC(=O)O)CC(=O)O)CCN(CC(=O)O)CC(=O)O` [DTPA, Diethylenetriaminepentaacetic (pentetic) acid] the “DTPA solubility in EtOH/PG without using ETA” value ([5]; 0.08 wt % DTPA) was “not soluble” and the “required minimum amount of ETA needed to solubilize DTPA” value ([5]; 0.08 wt % DTPA in EtOH/PG (50/50 w/w)) was “about 4.3 mol of ETA per 1 mol of DTPA”.

In the case of `NC(CO)CO` [serinol], the “required minimum amount of alkylamine needed to solubilize EDTA” value [6] is reported as “about 4 mol per 1 mol of EDTA”.

In the case of `NCCCC[C@@H]1NC(=O)[C@@H](Cc2c[nH]c3ccccc23)NC(=O)[C@H](c2ccccc2)NC(=O)[C@@H]2C[C@@H](OC(=O)NCCN)CN2C(=O)[C@H](Cc2ccccc2)NC(=O)[C@H](Cc2ccc(OCc3ccccc3)cc2)NC1=O` [pasireotide] (cyclo([Hyp]([CO-Ethylenediamine])[Phg][dW]KY(Bn)F)), the “initial half-life following the peak” value [7] is listed as 2 to 3 h.

For `OCCNCCO` [DiETA, Diethanolamine], the “effect on octreotide stability compared to the reference formulation (FIG. 7)” value ([1]; 40° C./75% RH) was “enhanced the peptide stability to a similar high degree”.
